In brackets after ≈: the same amount, converted by molar mass.
Key:
[1] = In vitro release, USP apparatus 2 (paddle), non-sink conditions (supersaturation); type: physicochemical; settings: 75 rpm, 900 ml acetate buffer pH 4.5, 37° C., active ingredient dose 20 mg
Method: The in vitro release investigations are carried out by USP release method with apparatus 2 (paddle) at a temperature of 37° C. The speed of rotation of the stirrer is 75 rpm (revolutions per minute) in 900 ml of an acetate buffer solution of pH 4.5, which is prepared from 29.9 g of sodium acetate trihydrate and 16.6 ml of glacial acetic acid in 10 l of water.
The investigations in this connection take place under sink or non-sink conditions.
Non-sink conditions: The investigations for examining the supersaturation (increase in solubility) take place without addition of a surfactant and with a dose of 20 mg of active ingredient (I) to be released.
To illustrate the supersaturation behaviour of exemplary formulations 1 to 6 (see below), as comparison the in vitro release (non-sink conditions) of the micronized crystalline active ingredient (I) in the thermodynamically stable crystal modification I and of a rapid-release tablet formulation produced by fluidized bed granulation and comprising micronized crystalline active ingredient (I) in crystal modification I were determined.

[2] = Bioavailability, comparative study in dogs (150 mg/kg); type: in vivo; settings: Beagle dogs, crossover, suspension, geometric means
[3] = Bioavailability, comparative study in rats (3 mg/kg); type: in vivo; settings: male Wistar rats, suspension, geometric means
Method: The bioavailability was investigated by administering 3 mg/kg active ingredient (I) in each case to male Wistar rats: • a) in the form of exemplary formulation 1 (suspended in water) • b) in the form of exemplary formulation 2 (suspended in water) • c) in the form of exemplary formulation 3 (suspended in water) • d) in the form of the micronized crystalline active ingredient in thermodynamically stable crystal modification I (suspended in 0.5% strength aqueous methylhydroxyethylcellulose (proprietary name: Tylose MH 300))

[4] = Solubility in water of active ingredient (I); type: physicochemical; settings: 25° C., crystal modification I

Compound	Release ([1]; 15 min)	Release ([1]; 30 min)	Release ([1]; 60 min)	Release ([1]; 90 min)	AUC (0-24)norm [2]	Cmax, norm [2]	Cmax ([2]; dog, in vivo, oral)	AUC(0-t) ([2]; dog, in vivo, oral, read-out: AUC (0-24))	AUC (0-24)norm [3]	Cmax, norm [3]	Cmax ([3]; rat, in vivo, oral)	AUC(0-t) ([3]; rat, in vivo, oral, read-out: AUC (0-24))	solubility [4]
O=C(NC[C@H]1CN(c2ccc(N3CCOCC3=O)cc2)C(=O)O1)c1ccc(Cl)s1 [Comparative Formulation 1.1, 5-Chloro-N-({(5S)-2-oxo-3-[4-(3-oxo-4-morpholinyl)phenyl]-1,3-oxazolidin-5-yl}methyl)-2-thiophenecarboxamide]	23%	34%	41%	44%	0.081 kg·h/L	0.015 kg/L	2220 ng/mL	12200 ng·h/mL	0.254 kg·h/L	0.074 kg/L	222 ng/mL	762 ng·h/mL	–
O=C(NC[C@H]1CN(c2ccc(N3CCOCC3=O)cc2)C(=O)O1)c1ccc(Cl)s1 [active ingredient (I), 5-Chloro-N-({(5S)-2-oxo-3-[4-(3-oxo-4-morpholinyl)phenyl]-1,3-oxazolidin-5-yl}methyl)-2-thiophenecarboxamide]	–	–	–	–	–	–	–	–	–	–	–	–	~7 µg/mL (≈ 16.1 µM)

— patent publication US8586082B2, “Solid orally administerable pharmaceutical dosage forms with rapid active principle release” (Bayer Intellectual Property GmbH, priority 2005, dated 2013)
